The values below come from patent US20250136606A1, “MODULATORS OF TRPML, THEIR COMPOSITIONS AND METHODS OF USE” (Caraway Therapeutics, Inc., priority 2021, published 2025).

The target of one test is T1, TRPML2 (Homo sapiens, UniProt Q8IZK6).
T1 construct: expressed in transfected cells
T1 sequence (Q8IZK6 1-566): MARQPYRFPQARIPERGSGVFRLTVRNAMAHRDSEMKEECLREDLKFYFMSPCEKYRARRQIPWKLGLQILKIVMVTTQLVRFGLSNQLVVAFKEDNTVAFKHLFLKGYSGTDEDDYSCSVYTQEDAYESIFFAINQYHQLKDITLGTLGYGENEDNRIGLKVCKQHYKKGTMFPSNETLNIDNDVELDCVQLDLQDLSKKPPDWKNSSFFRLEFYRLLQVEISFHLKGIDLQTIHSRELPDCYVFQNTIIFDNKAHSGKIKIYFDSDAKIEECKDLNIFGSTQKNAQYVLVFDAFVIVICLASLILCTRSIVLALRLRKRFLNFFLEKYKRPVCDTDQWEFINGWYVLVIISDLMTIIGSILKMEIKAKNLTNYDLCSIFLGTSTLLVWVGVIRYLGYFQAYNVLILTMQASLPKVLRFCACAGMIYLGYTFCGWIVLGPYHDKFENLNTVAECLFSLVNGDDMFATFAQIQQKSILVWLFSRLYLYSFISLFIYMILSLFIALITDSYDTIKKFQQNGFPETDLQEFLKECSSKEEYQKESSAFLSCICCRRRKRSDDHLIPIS
Nature of the test: Fluorescent TRPML2 assay (performed as for TRPML1, substituting the TRPML2 subtype). It is filed as cell-based. The method in brief:
(§1)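 Calcium-influx readout: Fluo4 fluorescence at 480/540 nm, normalised to positive and negative controls per plate, EC50 fitted by non-linear regression. Cells were HEK-293 Trex stable lines, channel expression induced overnight with 0.5 ug/mL doxycycline; tested at 20 micromolar down to 6 nanomolar final, half-log steps, triplicate.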

The next test addresses T2, TRPML3 (Homo sapiens, UniProt Q8TDD5).
T2 construct: expressed in transfected cells
T2 sequence (Q8TDD5 1-553): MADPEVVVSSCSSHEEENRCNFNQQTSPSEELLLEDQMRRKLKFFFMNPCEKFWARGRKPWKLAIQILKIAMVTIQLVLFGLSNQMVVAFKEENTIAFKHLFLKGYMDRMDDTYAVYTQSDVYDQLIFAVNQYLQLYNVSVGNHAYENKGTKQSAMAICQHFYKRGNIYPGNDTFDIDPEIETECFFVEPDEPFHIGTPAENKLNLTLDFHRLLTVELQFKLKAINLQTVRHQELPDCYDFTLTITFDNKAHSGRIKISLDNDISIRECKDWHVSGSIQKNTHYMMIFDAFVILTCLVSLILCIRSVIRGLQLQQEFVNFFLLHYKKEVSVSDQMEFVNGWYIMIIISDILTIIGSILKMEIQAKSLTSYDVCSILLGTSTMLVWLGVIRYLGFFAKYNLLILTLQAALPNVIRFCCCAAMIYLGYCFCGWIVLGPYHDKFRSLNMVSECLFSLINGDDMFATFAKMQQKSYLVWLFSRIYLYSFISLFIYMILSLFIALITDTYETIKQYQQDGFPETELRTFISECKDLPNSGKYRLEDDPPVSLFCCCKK
Nature of the test: Fluorescent TRPML3 assay (performed as for TRPML1, substituting the TRPML3 subtype). It is filed as cell-based. In outline:
as §1

Test [1] deals with TRPML1 (Homo sapiens, UniProt Q9GZU1). Nature of the test: Fluorescent TRPML1 assay (Fluo4-AM calcium fluorescence in doxycycline-induced HEK-293 Trex cells). It is filed as cell-based. The method in brief:
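hTRPML1 (mutated for cell-surface expression) in HEK-293 Trex, dox 0.5 ug/mL o/n; Fluo4-AM 1 uM ~60 min, then ~60 min de-esterification, dark; modified Ringer's + 10 mM Ca. Cmpds 20 uM–6 nM final, half-log, n=3. Ex480/Em540; % activity vs ctrls; EC50 by nonlinear regression.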

Test [2] concerns TRPML1. To be noted: cited from earlier work.

Sequence of TRPML1 (Homo sapiens, UniProt Q9GZU1) (Q9GZU1 whole entry L15A/L16A/L577A/L578A, form open): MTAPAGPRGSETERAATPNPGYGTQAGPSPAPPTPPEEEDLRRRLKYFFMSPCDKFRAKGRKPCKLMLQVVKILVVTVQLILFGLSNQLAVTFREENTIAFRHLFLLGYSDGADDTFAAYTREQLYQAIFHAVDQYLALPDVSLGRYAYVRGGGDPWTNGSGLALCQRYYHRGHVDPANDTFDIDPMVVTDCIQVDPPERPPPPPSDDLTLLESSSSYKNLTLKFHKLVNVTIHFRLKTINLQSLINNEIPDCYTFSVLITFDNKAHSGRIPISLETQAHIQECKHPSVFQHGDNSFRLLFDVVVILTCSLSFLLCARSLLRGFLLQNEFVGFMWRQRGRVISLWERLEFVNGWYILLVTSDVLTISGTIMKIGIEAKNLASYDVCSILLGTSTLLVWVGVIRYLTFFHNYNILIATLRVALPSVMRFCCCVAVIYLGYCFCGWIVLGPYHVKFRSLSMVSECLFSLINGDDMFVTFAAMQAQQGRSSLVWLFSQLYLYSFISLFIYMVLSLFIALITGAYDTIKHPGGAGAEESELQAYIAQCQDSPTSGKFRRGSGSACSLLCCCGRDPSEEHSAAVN

A word on the EC50: it is the concentration that produces a half-maximal response. Take `[2H]C([2H])([2H])[C@@H]1CN(c2ncnc3c2c(-c2ccccc2F)cn3-c2cc(C#N)ccn2)[C@@H](C)CN1C(=O)OC(C)(C)C` [Compound 712, tert-butyl (2R,5S)-4-(7-(4-cyanopyridin-2-yl)-5-(2-fluorophenyl)-7H-pyrrolo[2,3-d]pyrimidin-4-yl)-5-methyl-2-(methyl-d3)piperazine-1-carboxylate]: the concentration giving a half-maximal response (EC50) on TRPML2, on TRPML3 and on TRPML1 [1] was below 100 nM in each case.
As for `C#Cc1ccnc(-n2cc(C3CC3)c3c(N4C[C@@H](C)N(C(=O)OC(C)(C)C)C[C@@H]4C)ncnc32)c1` [Compound 715, tert-butyl (2R,5S)-4-(5-cyclopropyl-7-(4-ethynylpyridin-2-yl)-7H-pyrrolo[2,3-d]pyrimidin-4-yl)-2,5-dimethylpiperazine-1-carboxylate], the concentration for a half-maximal effect (EC50) on TRPML2, on TRPML3 and on TRPML1 [1] was below 100 nM throughout.
In the case of `C#Cc1ccnc(-n2cc(C(F)(F)F)c3c(N4C[C@@H](C)N(C(=O)OC(C)(C)C)C[C@@H]4C)ncnc32)c1` [Compound 716, tert-butyl (2R,5S)-4-(7-(4-ethynylpyridin-2-yl)-5-(trifluoromethyl)-7H-pyrrolo[2,3-d]pyrimidin-4-yl)-2,5-dimethylpiperazine-1-carboxylate], the values for the EC50 at TRPML2, at TRPML3 and at TRPML1 [1] were 500 to 2000 nM, 100 to 500 nM and 100 to 500 nM, respectively.
As to `CCc1ccnc(-n2cc(C3CC3)c3c(N4C[C@@H](C)N(C(=O)OC(C)(C)C)C[C@@H]4C)ncnc32)c1` [Compound 717, tert-butyl (2R,5S)-4-(5-cyclopropyl-7-(4-ethylpyridin-2-yl)-7H-pyrrolo[2,3-d]pyrimidin-4-yl)-2,5-dimethylpiperazine-1-carboxylate], the half-maximal effective concentration (EC50) was 100 to 500 nM on TRPML2, below 100 nM at TRPML3 and below 100 nM on TRPML1 [1].
`CCc1ccnc(-n2cc(C(F)(F)F)c3c(N4C[C@@H](C)N(C(=O)OC(C)(C)C)C[C@@H]4C)ncnc32)c1` [Compound 718, tert-butyl (2R,5S)-4-(7-(4-ethylpyridin-2-yl)-5-(trifluoromethyl)-7H-pyrrolo[2,3-d]pyrimidin-4-yl)-2,5-dimethylpiperazine-1-carboxylate]: the EC50 on TRPML2 is 500 to 2000 nM; on TRPML3 it was 100 to 500 nM; at TRPML1 [1], 100 to 500 nM.
With ML-SA1, in the test on TRPML1 [2] (HEK293 cells stably or transiently expressing TRPML1 with its lysosomal targeting sequence deleted), the “[Ca2+] increases” value is “significant [Ca2+] increases”. For the same molecule, in the test on TRPML1 [2] (TRPMLs, high concentrations needed), the “concentration needed to effectively activate TRPMLs” value was around 10 µM.
